Reference: PubChem BioAssay AID1963963 (Molecular Pharmacology Branch, DTP, NCI, 2024)

Test system: 958667-338-R-J2-PDC tumor spheroids viability
Test: Anticancer human tumor 958667-338-R-J2-PDC patient-derived colon adenocarcinoma cell line growth inhibition [PI3K]
Settings: spheroids with HUVEC and MSC; for IC50: curve of first compound; for viability, T/C: stronger effect = lower value
From the text: Combinatorial screen of targeted agents with the PI3K inhibitors inavolisib, alpelisib, duvelisib, and copanlisib in multi-cell type tumor spheroids
A high-throughput screen of multi-cell type tumor spheroids was designed to identify active combinations of targeted small molecules and PI3K pathway inhibitors. Complex spheroids include a stromal component modeled by human endothelial cells (HUVEC) and fibroblasts modeled by human mesenchymal stem cells (MSCs). The concentration ranges selected for each drug and investigational agent were based upon clinically achievable concentrations if the clinical Cmax of the agent was known.
Compounds. The drugs and investigational agents: inavolisib (NSC800729), alpelisib (NSC765974), duvelisib (NSC772469), copanlisib (NSC816437), ipatasertib (NSC767898), afuresertib (NSC778305), talazoparib (NSC767125), sapanisertib (NSC764658), selumetinib (NSC741078), tovorafenib (DAY101, NSC766906), vemurafenib (NSC761431), ravoxertinib (NSC781343), sotorasib (NSC818433), MRTX1133 (NSC 836407), abemaciclib (NSC 768073), palbociclib (NSC758247), venetoclax (NSC 766270), SY5609 (NSC837396), enzalutamide (NSC755605), and darolutamide (NSC825331), were obtained from the National Cancer Institute (NCI) Developmental Therapeutics Program Chemical Repository. The FDA-approved anticancer drug set is available from the NCI Developmental Therapeutics Program. […] The stock solutions were prepared in dimethyl sulfoxide (DMSO, Sigma-Aldrich, St. Louis, MO, cat. D2650) at 800-fold the tested concentration and stored at -70 degrees C prior to their use. All drugs and investigational agents were tested over a range starting from a high concentration at or near the clinical Cmax and decreasing in half-log increments. If the clinical Cmax for an agent had not been determined, the highest concentration tested was 10 microM.
Cell Culture. All cells were maintained in an incubator at 37 degrees C and 5% CO2 with 95% humidity. The PDC lines were cultured according to standard operating procedures established by the NCI PDMR (https://pdmr.cancer.gov/sops/default.htm). All PDCs were thawed and cultured in Matrigel-coated flasks prepared with a working solution of 1X Ham's F-12 nutrient mix, without supplementation (Invitrogen, Waltham, MA, cat. 11765054), 100 U/mL penicillin-streptomycin (Invitrogen, cat. 15140122), and 2.5% Matrigel (Corning Inc., Corning, NY, cat. 354248) for the first three passages. The 354836-022-R-J1-PDC, 475296-252-R-J1-PDC, and 997726-040-R-J2-PDC lines were cultured in 6A media, which includes advanced DMEM/F-12 (Thermo Fisher Scientific, cat. 12634028), 10 mM HEPES (Thermo Fisher Scientific, cat. 15630080), 1X GlutaMAX supplement (Thermo Fisher Scientific, cat. 35050061), 0.1 mg/mL primocin (InvivoGen, San Diego, CA, cat. ant-pm-2), 10% defined fetal bovine serum, heat inactivated (HyClone Laboratories Inc., Logan, UT, cat. SH30070.03HI), 50% L-WRN conditioned media (ATCC, cat. CRL-3276), 1.25 mM N-Acetyl-L-cysteine (Sigma-Aldrich, cat. A9165), 10 mM nicotinamide (Sigma-Aldrich, cat. N0636), 1X B-27 supplement (Thermo Fisher Scientific, cat. 17504044), 1X N-2 supplement (Thermo Fisher Scientific, cat. 17502048), and 10 microM Y-27632 dihydrochloride (Tocris Bioscience, Bristol, United Kingdom, cat. 1254). The 624824-186-R-J2-PDC line was cultured in 6C/Colon 1B media, which includes all 6A media components plus 50 ng/mL human EGF recombinant protein (Thermo Fisher Scientific, cat. PHG0311). […]
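Further: spheroids exposed to compounds for seven days before readout.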

SMILES: CCCS(=O)(=O)Nc1ccc(F)c(C(=O)c2c[nH]c3ncc(-c4ccc(Cl)cc4)cc23)c1F + CC(Nc1ccc2c(c1)OCCn1cc(N3C(=O)OCC3C(F)F)nc1-2)C(N)=O
- IC50 (second compound 0.00316 µM): 6.1 µM
- IC50 (second compound 0.01 µM): 6.01 µM
- IC50 (second compound 0.0316 µM): 5 µM
- IC50 (second compound 0.1 µM): 4.77 µM
- IC50 (second compound 0.316 µM): 4.81 µM
- IC50 (second compound 1 µM): 4.04 µM
- viability, T/C (second compound 0.00316 µM, first compound 0.0316 µM): 99%
- viability, T/C (second compound 0.00316 µM, first compound 0.1 µM): 105%
- viability, T/C (second compound 0.00316 µM, first compound 0.316 µM): 106%
- viability, T/C (second compound 0.00316 µM, first compound 1 µM): 106%
- viability, T/C (second compound 0.00316 µM, first compound 3.16 µM): 112%
- viability, T/C (second compound 0.00316 µM, first compound 10 µM): 8.08%
- viability, T/C (second compound 0.01 µM, first compound 0.0316 µM): 105%
- viability, T/C (second compound 0.01 µM, first compound 0.1 µM): 111%
- viability, T/C (second compound 0.01 µM, first compound 0.316 µM): 83.7%
- viability, T/C (second compound 0.01 µM, first compound 1 µM): 99.9%
- viability, T/C (second compound 0.01 µM, first compound 3.16 µM): 130%
- viability, T/C (second compound 0.01 µM, first compound 10 µM): 5.91%
- viability, T/C (second compound 0.0316 µM, first compound 0.0316 µM): 104%
- viability, T/C (second compound 0.0316 µM, first compound 0.1 µM): 109%
- viability, T/C (second compound 0.0316 µM, first compound 0.316 µM): 104%
- viability, T/C (second compound 0.0316 µM, first compound 1 µM): 106%
- viability, T/C (second compound 0.0316 µM, first compound 3.16 µM): 76.7%
- viability, T/C (second compound 0.0316 µM, first compound 10 µM): 9.56%
- viability, T/C (second compound 0.1 µM, first compound 0.0316 µM): 78.3%
- viability, T/C (second compound 0.1 µM, first compound 0.1 µM): 74.9%
- viability, T/C (second compound 0.1 µM, first compound 0.316 µM): 72.3%
- viability, T/C (second compound 0.1 µM, first compound 1 µM): 67.5%
- viability, T/C (second compound 0.1 µM, first compound 3.16 µM): 81.1%
- viability, T/C (second compound 0.1 µM, first compound 10 µM): 5.14%
- viability, T/C (second compound 0.316 µM, first compound 0.0316 µM): 72.5%
- viability, T/C (second compound 0.316 µM, first compound 0.1 µM): 65.5%
- viability, T/C (second compound 0.316 µM, first compound 0.316 µM): 61.5%
- viability, T/C (second compound 0.316 µM, first compound 1 µM): 79.1%
- viability, T/C (second compound 0.316 µM, first compound 3.16 µM): 79.7%
- viability, T/C (second compound 0.316 µM, first compound 10 µM): 12.3%
- viability, T/C (second compound 1 µM, first compound 0.0316 µM): 57.8%
- viability, T/C (second compound 1 µM, first compound 0.1 µM): 61%
- viability, T/C (second compound 1 µM, first compound 0.316 µM): 58%
- viability, T/C (second compound 1 µM, first compound 1 µM): 68.9%
- viability, T/C (second compound 1 µM, first compound 3.16 µM): 60.5%
- viability, T/C (second compound 1 µM, first compound 10 µM): 10.8%
